From ChEMBL document CHEMBL3885881, “DrugMatrix”

Species on record: Rattus norvegicus
Assay: DrugMatrix - Regimen: Daily Repeat
Format: toxicity, organism-based, Sprague-Dawley
Set-up: regimen Daily Repeat, gender Male, age 6-8 weeks
Settings: in vivo, po, route oral GAVAGE, vehicle .5 % CMC; for ABSOLUTE BASOPHIL / ABSOLUTE EOSINOPHIL / ABSOLUTE LYMPHOCYTE / ABSOLUTE MONOCYTE / ABSOLUTE SEGMENTED NEUTROPHIL / BASOPHIL / EOSINOPHIL / ERYTHROCYTE COUNT / HEMATOCRIT / HEMOGLOBIN / LEUKOCYTE COUNT / LYMPHOCYTE / MEAN CORPUSCULAR HEMOGLOBIN / MEAN CORPUSCULAR HEMOGLOBIN CONCENTRATION / MEAN CORPUSCULAR VOLUME / MONOCYTE / NEUTROPHIL / NUCLEATED RED BLOOD CELLS / PLATELET COUNT: tissue Blood; for ALANINE AMINOTRANSFERASE / ALBUMIN / ALKALINE PHOSPHATASE / ASPARTATE AMINOTRANSFERASE / BLOOD UREA NITROGEN / CARBON DIOXIDE / CHLORIDE / CHOLESTEROL / CREATINE PHOSPHOKINASE / CREATININE / GLUCOSE / LACTATE DEHYDROGENASE / LIPASE / PHOSPHORUS / POTASSIUM / SODIUM / TOTAL BILIRUBIN / TOTAL PROTEIN / URIC ACID: tissue Plasma
[1] = 0 mg/kg, 72 h, dose level Control, time 3 day
[2] = 0 mg/kg, 120 h, dose level Control, time 5 day
[3] = 50 mg/kg, 72 h, dose level Low, time 3 day

Compound: CNC(=C[N+](=O)[O-])NCCSCc1ccc(CN(C)C)o1 [RANITIDINE]
- ABSOLUTE BASOPHIL [1]: 0 CELLS/uL
- ABSOLUTE EOSINOPHIL [1]: 0 CELLS/uL
- ABSOLUTE LYMPHOCYTE [1]: 12269.67 CELLS/uL
- ABSOLUTE MONOCYTE [1]: 160.33 CELLS/uL
- ABSOLUTE SEGMENTED NEUTROPHIL [1]: 970 CELLS/uL
- BASOPHIL [1]: 0%
- EOSINOPHIL [1]: 0%
- ERYTHROCYTE COUNT [1]: 5.76 x10E6/uL
- HEMATOCRIT [1]: 36.57%
- HEMOGLOBIN [1]: 14.22 G/DL
- LEUKOCYTE COUNT [1]: 13.4 x10E3/uL
- LYMPHOCYTE [1]: 91.67%
- MEAN CORPUSCULAR HEMOGLOBIN [1]: 24.67 pg
- MEAN CORPUSCULAR HEMOGLOBIN CONCENTRATION [1]: 38.85 G/DL
- MEAN CORPUSCULAR VOLUME [1]: 63.52 fL
- MONOCYTE [1]: 1.17%
- NEUTROPHIL [1]: 7.17%
- NUCLEATED RED BLOOD CELLS [1]: 0.33 /100WBC
- PLATELET COUNT [1]: 1250.83 x10E3/uL
- ALANINE AMINOTRANSFERASE [1]: 49.17 u/L
- ALBUMIN [1]: 4.33 G/DL
- ALKALINE PHOSPHATASE [1]: 378.5 u/L
- ASPARTATE AMINOTRANSFERASE [1]: 82.17 u/L
- BLOOD UREA NITROGEN [1]: 15 mg/dL
- CARBON DIOXIDE [1]: 34.33 mmol/L
- CHLORIDE [1]: 99.17 MEQ/L
- CHOLESTEROL [1]: 71.17 mg/dL
- CREATINE PHOSPHOKINASE [1]: 258.67 u/L
- CREATININE [1]: 0.18 mg/dL
- GLUCOSE [1]: 142.67 mg/dL
- LACTATE DEHYDROGENASE [1]: 154.33 u/L
- LIPASE [1]: 9 u/L
- PHOSPHORUS [1]: 11.67 mg/dL
- POTASSIUM [1]: 7.13 MEQ/L
- SODIUM [1]: 142.22 MEQ/L
- TOTAL BILIRUBIN [1]: 0.18 mg/dL
- TOTAL PROTEIN [1]: 5.77 G/DL
- URIC ACID [1]: 1.55 mg/dL
- ABSOLUTE BASOPHIL [2]: 0 CELLS/uL
- ABSOLUTE EOSINOPHIL [2]: 23.33 CELLS/uL
- ABSOLUTE LYMPHOCYTE [2]: 14943.67 CELLS/uL
- ABSOLUTE MONOCYTE [2]: 32 CELLS/uL
- ABSOLUTE SEGMENTED NEUTROPHIL [2]: 1084.33 CELLS/uL
- BASOPHIL [2]: 0%
- EOSINOPHIL [2]: 0.17%
- ERYTHROCYTE COUNT [2]: 5.71 x10E6/uL
- HEMATOCRIT [2]: 35.28%
- HEMOGLOBIN [2]: 14.27 G/DL
- LEUKOCYTE COUNT [2]: 16.08 x10E3/uL
- LYMPHOCYTE [2]: 93%
- MEAN CORPUSCULAR HEMOGLOBIN [2]: 25.02 pg
- MEAN CORPUSCULAR HEMOGLOBIN CONCENTRATION [2]: 40.43 G/DL
- MEAN CORPUSCULAR VOLUME [2]: 61.82 fL
- MONOCYTE [2]: 0.17%
- NEUTROPHIL [2]: 6.67%
- NUCLEATED RED BLOOD CELLS [2]: 0.33 /100WBC
- PLATELET COUNT [2]: 1274 x10E3/uL
- ALANINE AMINOTRANSFERASE [2]: 54.17 u/L
- ALBUMIN [2]: 4.22 G/DL
- ALKALINE PHOSPHATASE [2]: 373.17 u/L
- ASPARTATE AMINOTRANSFERASE [2]: 81.83 u/L
- BLOOD UREA NITROGEN [2]: 16.67 mg/dL
- CARBON DIOXIDE [2]: 30.33 mmol/L
- CHLORIDE [2]: 99 MEQ/L
- CHOLESTEROL [2]: 71 mg/dL
- CREATINE PHOSPHOKINASE [2]: 273.5 u/L
- CREATININE [2]: 0.22 mg/dL
- GLUCOSE [2]: 141.83 mg/dL
- LACTATE DEHYDROGENASE [2]: 153.67 u/L
- LIPASE [2]: 10.33 u/L
- PHOSPHORUS [2]: 11.38 mg/dL
- POTASSIUM [2]: 7.08 MEQ/L
- SODIUM [2]: 142.75 MEQ/L
- TOTAL BILIRUBIN [2]: 0.18 mg/dL
- TOTAL PROTEIN [2]: 6.1 G/DL
- URIC ACID [2]: 1.67 mg/dL
- ABSOLUTE BASOPHIL [3]: 0 CELLS/uL
- ABSOLUTE EOSINOPHIL [3]: 82.33 CELLS/uL
- ABSOLUTE LYMPHOCYTE [3]: 12453.33 CELLS/uL
- ABSOLUTE MONOCYTE [3]: 303 CELLS/uL
- ABSOLUTE SEGMENTED NEUTROPHIL [3]: 1061.33 CELLS/uL
- BASOPHIL [3]: 0%
- EOSINOPHIL [3]: 0.67%
- ERYTHROCYTE COUNT [3]: 5.58 x10E6/uL
- HEMATOCRIT [3]: 36.1%
- HEMOGLOBIN [3]: 14.47 G/DL
- LEUKOCYTE COUNT [3]: 13.9 x10E3/uL
- LYMPHOCYTE [3]: 89.67%
- MEAN CORPUSCULAR HEMOGLOBIN [3]: 25.9 pg
- MEAN CORPUSCULAR HEMOGLOBIN CONCENTRATION [3]: 40.1 G/DL
- MEAN CORPUSCULAR VOLUME [3]: 64.73 fL
- MONOCYTE [3]: 2%
- NEUTROPHIL [3]: 7.67%
- NUCLEATED RED BLOOD CELLS [3]: 0.33 /100WBC
- PLATELET COUNT [3]: 1180.67 x10E3/uL
- ALANINE AMINOTRANSFERASE [3]: 50.67 u/L
- ALBUMIN [3]: 4.17 G/DL
- ALKALINE PHOSPHATASE [3]: 358 u/L
- ASPARTATE AMINOTRANSFERASE [3]: 90.67 u/L
- BLOOD UREA NITROGEN [3]: 16.33 mg/dL
- CARBON DIOXIDE [3]: 27.33 mmol/L
- CHLORIDE [3]: 101.33 MEQ/L
- CHOLESTEROL [3]: 81.67 mg/dL
- CREATINE PHOSPHOKINASE [3]: 304 u/L
- CREATININE [3]: 0.2 mg/dL
- GLUCOSE [3]: 157.33 mg/dL
- LACTATE DEHYDROGENASE [3]: 312 u/L
- LIPASE [3]: 10 u/L
- PHOSPHORUS [3]: 15.03 mg/dL
- POTASSIUM [3]: 7.11 MEQ/L
- SODIUM [3]: 147.4 MEQ/L
- TOTAL BILIRUBIN [3]: 0.2 mg/dL
- TOTAL PROTEIN [3]: 5.83 G/DL
- URIC ACID [3]: 2.3 mg/dL
